# According to patent US20230263822A1, “MODULATION OF FACTOR 11 EXPRESSION” (Ionis Pharmaceuticals, Inc., priority 2008, published 2023):
# Strand notation (5' to 3'): a small letter for the sugar, then the base; units joined by * are phosphorothioate-linked, units joined directly phosphodiester-linked; [ ] holds rarer units or linkages, { } end groups; capitals alone tell only the bases. e = 2'-O-(2-methoxyethyl) (MOE); [5mC] = 5-methylcytosine; d = 2'-deoxy (DNA)
# Legend:
# [1] = tested on: human Factor 11 mRNA; experiment: Dose-dependent inhibition of human Factor 11 in HepG2 cells, electroporation 375-12,000 nM (Example 32); assay type: cell-based; conditions: for Percent inhibition of Factor 11 mRNA at 375 nM / Percent inhibition of Factor 11 mRNA at 750 nM / IC50: electroporation; for Percent inhibition of Factor 11 mRNA at 375 nM / Percent inhibition of Factor 11 mRNA at 750 nM / Percent inhibition of Factor 11 mRNA at 1,500 nM / Percent inhibition of Factor 11 mRNA at 3,000 nM / Percent inhibition of Factor 11 mRNA at 6,000 nM / Percent inhibition of Factor 11 mRNA at 12,000 nM: approx. 16 hours, relative to untreated control cells; for Percent inhibition of Factor 11 mRNA at 1,500 nM: electroporation, 1,500 nM; for Percent inhibition of Factor 11 mRNA at 3,000 nM: electroporation, 3,000 nM; for Percent inhibition of Factor 11 mRNA at 6,000 nM: electroporation, 6,000 nM; for Percent inhibition of Factor 11 mRNA at 12,000 nM: electroporation, 12,000 nM; for IC50: Factor 11 mRNA expression
# Method: These gapmers were tested at various doses in HepG2 cells. Cells were plated at a density of 20,000 cells per well and transfected using electroporation with 375 nM, 750 nM, 1,500 nM, 3,000 nM, 6,000 nM and 12,000 nM concentrations of antisense oligonucleotide, as specified in Table 47. After a treatment period of approximately 16 hours, RNA was isolated from the cells and Factor 11 mRNA levels were measured by quantitative real-time PCR. Human Factor 11 primer probe set RTS 2966 was used to measure mRNA levels. Factor 11 mRNA levels were adjusted according to total RNA content, as measured by RIBOGREEN. Results are presented as percent inhibition of Factor 11, relative to untreated control cells.
# ISIS 416850, ISIS 416858, ISIS 445522, and ISIS 445531 (see Table 45 above) were re-tested in vitro along with the microwalk gapmers under the same conditions described above.
# The first two listed gapmers in Table 47 are the original gapmers (ISIS 416850 and ISIS 416858) from which the remaining gapmers were designed via microwalk and are designated by an asterisk.
# [2] = Tolerability in CD1 mice: liver function, ALT, AST, bilirubin, albumin (Example 33); conditions: plasma, 50 mg/kg s.c. twice a week
# Method: (§1) A control group of five mice was injected subcutaneously with PBS for 2 weeks. All experimental groups (i.e. ASO treated mice at 2, 4, 6 weeks) were compared to the control group (i.e. PBS, 2 weeks).
# To evaluate the effect of ISIS oligonucleotides on hepatic function, plasma concentrations of transaminases were measured using an automated clinical chemistry analyzer (Hitachi Olympus AU400e, Melville, N.Y.). […] Plasma levels of bilirubin and albumin were also measured using the same clinical chemistry analyzer and expressed in mg/dL.
# [3] = Tolerability in CD1 mice: kidney function, BUN, creatinine (Example 33); conditions: plasma, 50 mg/kg s.c. twice a week
# Method: as §1
# To evaluate the effect of ISIS oligonucleotides on kidney function, plasma concentrations of blood urea nitrogen (BUN) and creatinine were measured using an automated clinical chemistry analyzer (Hitachi Olympus AU400e, Melville, N.Y.).
# [4] = Liver function, ALT, AST, bilirubin in cynomolgus monkeys (Example 45); assay type: in vivo; conditions: plasma, escalating dose regimen
# Method: Groups, each consisting of two male and three female monkeys, were injected subcutaneously with ISIS 416838, ISIS 416850, ISIS 416858, ISIS 416864, or ISIS 417002 in escalating doses. Antisense oligonucleotide was administered to the monkeys at 5 mg/kg three times per a week for week 1; 5 mg/kg twice per week for weeks 2 and 3; 10 mg/kg three times per week for week 4; 10 mg/kg twice per week for weeks 5 and 6; 25 mg/kg three times per week for week 7; and 25 mg/kg twice per week for weeks 8, 9, 10, 11, and 12. One control group, consisting of two male and three female monkeys, was injected subcutaneously with PBS according to the same dosing regimen. An additional experimental group, consisting of two male and three female monkeys, was injected subcutaneously with ISIS 416850 in a chronic, lower dose regimen. Antisense oligonucleotide was administered to the monkeys at 5 mg/kg three times per week for week 1; 5 mg/kg twice per week for week 2 and 3; 10 mg/kg three times per week for week 4; and 10 mg/kg twice per week for weeks 5 to 12. Body weights were measured weekly. Blood samples were collected 14 days and 5 days before the start of treatment and subsequently once per week for Factor 11 protein activity analysis in plasma, fibrinogen measurement, PT and aPTT measurements, bleeding times, and measurement of various hematologic factors. On day 85, the monkeys were euthanized by exsanguination while under deep anesthesia, and organs harvested for further analysis.
# The ISIS oligonucleotide, ISIS 416850, given with the chronic dose regimen is distinguished from the other oligonucleotides with an asterisk (*).
substance,measurement,setting,value
445531 (antisense eG*eG*e[5mC]*eA*eT*dT*dG*dG*dT*dG*d[5mC]*dA*d[5mC]*eA*eG*eT*eT*eT) [compound 445531],Percent inhibition of Factor 11 mRNA at 375 nM,[1],44%
same,Percent inhibition of Factor 11 mRNA at 750 nM,[1],64%
same,"Percent inhibition of Factor 11 mRNA at 1,500 nM",[1],78%
same,"Percent inhibition of Factor 11 mRNA at 3,000 nM",[1],86%
same,"Percent inhibition of Factor 11 mRNA at 6,000 nM",[1],91%
same,"Percent inhibition of Factor 11 mRNA at 12,000 nM",[1],93%
same,IC50,[1],440 nM
"ISIS 417002: MOE gapmer, nucleobases 1275 to 1318 of SEQ ID NO: 1 (Table 8) (antisense GGTGCACAGTTTCTGGCAGG; MOE gapmer, wing and gap sizes not given here)",ALT,[2]; 2 weeks,71 IU/L
same,AST,[2]; 2 weeks,96 IU/L
same,Albumin,[2]; 2 weeks,3.2
same,Bilirubin,[2]; 2 weeks,0.50 mg/dL
same,ALT,[2]; 4 weeks,138 IU/L
same,AST,[2]; 4 weeks,87 IU/L
same,Albumin,[2]; 4 weeks,3.4
same,Bilirubin,[2]; 4 weeks,0.25 mg/dL
same,ALT,[2]; 6 weeks,2579 IU/L
same,AST,[2]; 6 weeks,1166 IU/L
same,Albumin,[2]; 6 weeks,3.4
same,Bilirubin,[2]; 6 weeks,0.29 mg/dL
same,BUN,[3]; 2 weeks,19 mg/dL
same,Creatinine,[3]; 2 weeks,0.06 mg/dL
same,BUN,[3]; 4 weeks,23 mg/dL
same,Creatinine,[3]; 4 weeks,0.16 mg/dL
same,BUN,[3]; 6 weeks,19 mg/dL
same,Creatinine,[3]; 6 weeks,0.10 mg/dL
same,ALT,[4]; day 22,36 IU/L
same,AST,[4]; day 22,44 IU/L
same,Bilirubin,[4]; day 22,0.20 mg/dL
same,ALT,[4]; day 43,35 IU/L
same,AST,[4]; day 43,42 IU/L
same,Bilirubin,[4]; day 43,0.21 mg/dL
same,ALT,[4]; day 64,42 IU/L
same,AST,[4]; day 64,37 IU/L
same,Bilirubin,[4]; day 64,0.14 mg/dL
same,ALT,[4]; day 85,116 IU/L
same,AST,[4]; day 85,50 IU/L
same,Bilirubin,[4]; day 85,0.12 mg/dL
same,ALT,[4]; day −14,61 IU/L
same,AST,[4]; day −14,114 IU/L
same,Bilirubin,[4]; day −14,0.26 mg/dL
"416850 (antisense TGCACAGTTTCTGGCAGGCC; 5-10-5 gapmer, further chemistry not given here) [compound 416850]",Percent inhibition of Factor 11 mRNA at 375 nM,[1],40%
same,Percent inhibition of Factor 11 mRNA at 750 nM,[1],59%
same,"Percent inhibition of Factor 11 mRNA at 1,500 nM",[1],69%
same,"Percent inhibition of Factor 11 mRNA at 3,000 nM",[1],87%
same,"Percent inhibition of Factor 11 mRNA at 6,000 nM",[1],90%
same,"Percent inhibition of Factor 11 mRNA at 12,000 nM",[1],95%
same,IC50,[1],560 nM
"416858 (antisense ACGGCATTGGTGCACAGTTT; 5-10-5 gapmer, further chemistry not given here) [compound 416858]",Percent inhibition of Factor 11 mRNA at 375 nM,[1],31%
same,Percent inhibition of Factor 11 mRNA at 750 nM,[1],35%
same,"Percent inhibition of Factor 11 mRNA at 1,500 nM",[1],78%
same,"Percent inhibition of Factor 11 mRNA at 3,000 nM",[1],85%
same,"Percent inhibition of Factor 11 mRNA at 6,000 nM",[1],90%
same,"Percent inhibition of Factor 11 mRNA at 12,000 nM",[1],93%
same,IC50,[1],830 nM
